Measured values reported in patent US20020037864A1, “2'-Propionate clarithromycin dodecyl sulfate and its preparation and pharmaceutical composition containing the same” (priority 2000, published 2002).
Values after ≈ are worked out from the molar mass of the structure shown. Where a name gives a salt, the structure may show the parent alone.

Key:
[1] = tested on: Streptococcus herbarum, Streptococcus haemolyticus, Staphylococcus aureus, Enterococcus faecalis, Staphylococcus epidermidis, Listeria monocytogenes, and ATCC …; experiment: Antibacterial activity in vitro comparison assay, agar dilution method (NCCLS); format: cell-based; settings: for MIC50 / MIC90: agar dilution, panel of test strains
Description: The primary antibacterial activity in vitro comparison assay between compound (I) (named CES hereafter) and clarithromycin are performed by No. 1 Hospital of Zhejiang Medical University. The agar dilution method, according to the method recognized by NCCLS (“National clinical analysis criterion protocol” (2nd edition), Ye Yingwu and Wang Yusan ed., p562, Southeast University Press), is taken in the following pharmaceutical sensitivity tests against Streptococcus herbarum, Streptococcus haemolyticus, Staphylococcus aureus, Enterococcus faecalis, Staphylococcus epidermidis, Listeria monocytogenes, and ATCC 25923.

[2] = pH value of aqueous mixture (Chinese Pharmacopoeia 2000, Annex VI H); format: physicochemical; settings: 0.4 g added into 10 ml water
Description: The pH value of compound (I) of present invention is 5-7 as pH value analyzer (Model PHS-3C, Shanghai leici equipment factory) determined according to the method described in ANNEX VIH (on the measurement of pH value) to Chinese Pharmacopoeia (2000 edition), wherein compound (I) of present invention 0.4 g is added into 10 ml water and stirring extensively.

mice = experiment: Maximal tolerance test; format: in vivo
Description: Acute toxicity animal trial to compound (I) of the present invention is carried out by using 20 KM mice (10 males) weighted 18-22 g. […] Subsequently, the maximal tolerance dose to mice is greater than 8 g/kg as maximal tolerance test determined. […] The mice restored gradually 3 days after administration of compound (I).

[3] = Solubility (physical & chemical property); format: physicochemical
[4] = Acute toxicity animal trial, oral administration; format: in vivo; settings: both sexes, mouse, in vivo, po; orally administrated to KM mice
KM mice = experiment: Acute toxicity animal trial, oral administration; format: in vivo; settings: mice after administration
mice and rat = settings: orally administrated to mice and rat; cited from earlier work

SMILES | MIC50 [1] [µg/mL] | MIC90 [1] | antibacterial activity relative to clarithromycin ([1]; in vitro comparison) | pH value [2] | maximal tolerance dose (mice) | solubility in acetone, ethanol, methanol and chloroform [3] | solubility in water [3] | LD50 [4] [mg/kg] | death (KM mice) | signs after administration (KM mice) | time to gradual restoration (KM mice) [days] | LD50 (mice and rat) [mg/kg]
CCC(=O)OC1C(O[C@@H]2C(C)[C@H](OC3CC(C)(OC)C(O)C(C)O3)[C@@H](C)C(=O)O[C@H](CC)[C@@](C)(O)[C@H](O)C(C)C(=O)[C@H](C)C[C@@]2(C)OC)OC(C)CC1N(C)C (some centres unmarked) [compound (I), 2′-propionate clarithromycin dodecyl sulfate] | 0.25 | ≧128 μg/ml | comparable to that of clarithromycin | 5-7 | greater than 8 g/kg | freely soluble | almost insoluble | > 7500 | no death was observed | furriery flab, drowsiness, spiritless and reduced movement | 3 | 
CC[C@H]1OC(=O)[C@H](C)[C@@H](O[C@H]2C[C@@](C)(OC)[C@@H](O)[C@H](C)O2)[C@H](C)[C@@H](O[C@@H]2O[C@H](C)C[C@H](N(C)C)[C@H]2O)[C@](C)(OC)C[C@@H](C)C(=O)[C@H](C)[C@@H](O)[C@]1(C)O [clarithromycin] | 0.25 (≈ 0.334 µM) | ≧128 μg/ml |  |  |  |  |  |  |  |  |  | 2700 to 3500
